Source: US11530206B2, “Phenylaminopyrimidine amide autophagy inhibitors and methods of use thereof” (Deciphera Pharmaceuticals, LLC, priority 2019, dated 2022)

Tests used:
[1] = target: T1, ULK1 kinase (Homo sapiens, UniProt O75385); test: Biochemical assay for ULK1.2 (coupled pyruvate kinase/lactate dehydrogenase assay); details: 19 nM ULK1 (residues 1-314, His tag), myelin basic protein, 1 mM ATP
T1 construct: purchased Eurofins 14-959
T1 sequence (O75385 with tags, fused parts or gaps): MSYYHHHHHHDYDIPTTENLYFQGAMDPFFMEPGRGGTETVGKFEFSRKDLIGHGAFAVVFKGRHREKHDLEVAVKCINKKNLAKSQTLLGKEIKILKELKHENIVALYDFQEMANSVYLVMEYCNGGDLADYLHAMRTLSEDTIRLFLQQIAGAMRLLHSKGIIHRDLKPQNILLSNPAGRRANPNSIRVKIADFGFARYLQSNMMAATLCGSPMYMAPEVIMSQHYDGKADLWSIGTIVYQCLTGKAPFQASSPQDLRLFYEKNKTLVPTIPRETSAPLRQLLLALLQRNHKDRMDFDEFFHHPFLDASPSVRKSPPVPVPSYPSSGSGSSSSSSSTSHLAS
Outline: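 Coupled assay followed the fall in absorbance at 340 nm continuously for 6 hours at 30 °C, with compounds serially diluted at 1% DMSO final. Rates from the 2–3 h window were normalised to no-compound and reference-inhibitor controls. IC50 came from a four-parameter sigmoidal fit.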

[2] = target: T2, ULK1 kinase (Homo sapiens, UniProt O75385, E37A/K38A); test: Biochemical assay for ULK1.3 (coupled pyruvate kinase/lactate dehydrogenase assay, peptide substrate); details: 0.1 nM ULK1 (residues 1-283), 1 mM ATP
T2 construct: purchased Beryllium
T2 sequence (O75385 1-283 E37A/K38A): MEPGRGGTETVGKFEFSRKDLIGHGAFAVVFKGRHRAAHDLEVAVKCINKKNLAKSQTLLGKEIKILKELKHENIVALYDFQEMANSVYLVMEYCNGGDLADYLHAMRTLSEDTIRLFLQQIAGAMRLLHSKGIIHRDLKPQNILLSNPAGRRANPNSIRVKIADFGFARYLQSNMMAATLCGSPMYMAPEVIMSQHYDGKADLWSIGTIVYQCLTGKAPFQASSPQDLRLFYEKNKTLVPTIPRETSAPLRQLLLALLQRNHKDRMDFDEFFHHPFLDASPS
Outline: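 ULK1.3 activity was followed by continuous decrease in 340 nm absorbance over 6 h at 30 °C with 1% DMSO final. Rates were taken from the 2–3 h window and converted to percent inhibition against no-compound and known-inhibitor controls. IC50 values came from curve fitting.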

[3] = target: T3, ULK2 kinase (Homo sapiens, UniProt Q8IYT8); test: Biochemical assay for ULK2 (coupled pyruvate kinase/lactate dehydrogenase assay); details: 9.7 nM ULK2 (residues 1-306, GST and His tag), myelin basic protein, 1 mM ATP; read-out: ULK2.2
T3 construct: purchased Eurofins 14-772
T3 sequence (Q8IYT8 with tags, fused parts or gaps): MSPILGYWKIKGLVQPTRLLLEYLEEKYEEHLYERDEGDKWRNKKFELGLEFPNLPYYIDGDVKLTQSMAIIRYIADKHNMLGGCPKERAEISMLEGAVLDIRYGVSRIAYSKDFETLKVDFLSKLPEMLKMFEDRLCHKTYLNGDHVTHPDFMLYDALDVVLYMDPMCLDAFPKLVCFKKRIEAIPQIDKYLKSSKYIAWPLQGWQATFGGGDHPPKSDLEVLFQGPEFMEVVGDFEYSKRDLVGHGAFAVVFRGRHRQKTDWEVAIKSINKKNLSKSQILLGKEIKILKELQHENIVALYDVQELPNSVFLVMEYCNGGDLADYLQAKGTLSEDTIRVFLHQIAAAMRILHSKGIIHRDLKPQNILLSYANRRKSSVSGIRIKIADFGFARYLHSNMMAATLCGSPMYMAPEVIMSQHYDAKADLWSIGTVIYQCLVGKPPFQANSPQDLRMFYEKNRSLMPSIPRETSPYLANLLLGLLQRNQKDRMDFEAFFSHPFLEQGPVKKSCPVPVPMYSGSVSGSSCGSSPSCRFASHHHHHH
Method: Example 132. Biochemical Assay for ULK2 (SEQ. ID NO: 3)
Activity of ULK2 kinase was determined spectroscopically using a coupled pyruvate kinase/lactate dehydrogenase assay that continuously monitors the ATP hydrolysis-dependent oxidation of NADH (e.g., Schindler et al. Science (2000) 289: 1938-1942). Assays were conducted in 384-well plates (100 uL final volume) using 9.7 nM ULK2 (Eurofins CAT #14-772), 0.25 mg/mL myelin basic protein, 1.5 units pyruvate kinase, 2.1 units lactate dehydrogenase, 1 mM phosphoenol pyruvate, 0.28 mM NADH and 1 mM ATP in assay buffer (100 mM Tris, pH 7.5, 15 mM MgCl2, 0.5 mM DTT, 0.1% octyl-glucoside, 0.002% (w/v) BSA, and 0.002% Triton X-100). Inhibition of ULK2 was measured by adding serial diluted test compound (final assay concentration of 1% DMSO). A decrease in absorption at 340 nm was monitored continuously for 6 hours at 30° C. on a multi-mode microplate reader (BioTek). The reaction rate was calculated using the 2-3 h time frame. The reaction rate at each concentration of compound was converted to percent inhibition using controls (i.e. reaction with no test compound and reaction with a known inhibitor) and IC50 values were calculated by fitting a four-parameter sigmoidal curve to the data using Prism (GraphPad software).

[4] = tested on: ULK kinase; test: pATG13 levels of mutant BRAF A375 cells after treatment with ULK inhibitors in combination with trametinib (ELISA); type: cell-based, human; details: A375 malignant melanoma cells (mutant BRAF), 250 nM trametinib, overnight, pS318-ATG13
Method: A375 human malignant melanoma cancer cells (20000 cells/well) were added to a 96-well tissue-culture treated plate in 100 μL of pre-warmed DMEM medium supplemented with 10% characterized fetal bovine serum (Invitrogen, Carlsbad, Calif.), 100 units/mL penicillin G, and 100 μg/mL streptomycin and allowed to grow overnight at 37° C., 5% CO2, and 95% humidity. The following day, 100 μL of media containing trametinib or DMSO as a control was added to wells. […] A dose response of a test compound (0.5 μL per well) was added. DMSO (0.5 μL) was added to control wells. The plate was briefly shaken to mix wells and then incubated at 37° C. overnight. The next day, the media was aspirated and cells were washed with Dulbecco's Phosphate Buffered Saline (Gibco). Cells were lysed using MPER lysis buffer (Pierce, Rockford, Ill.) containing Halt Phosphatase and Protease Inhibitors (Pierce, Rockford, Ill.) and Phosphatase inhibitor cocktail 2 (Sigma, St. Louis, Mo.) at 4° C. for 10 minutes with shaking.
Plate wells were washed with ELISA wash buffer. Cell lysate was added to wells and incubated at room temperature for 2 hours. Plate wells were washed with ELISA wash buffer. […] Plate wells were washed with ELISA wash buffer. […] Plate wells were washed with ELISA wash buffer. […] The reaction was stopped with 2N Sulfuric Acid. The plate was analyzed at on a plate reader measuring absorbance at 450 nm and 540 nm (background). Signal was calculated by first subtracting the background absorbance at 540 nm from the absorbance at 450 nm for each well. Next, the background corrected absorbance at 450 nm from blank wells was subtracted from test wells. Data was compared to control wells to determine % ATG13 phosphorylation. GraphPad Prism was used to calculate IC50 values.

Row | Structure (SMILES) | IC50 [1] [nM] | IC50 [2] [nM] | IC50 [3] [nM] | IC50 [4] [nM]
1 | CN1CCN(c2ccc(Nc3ncc(C(F)(F)F)c(NCCCN4CCCCC4=O)n3)c(C3CC3)c2)CC1 [Example 14] | 1 to 25 | 1 to 25 | 1 to 25 | 10 to 100
2 | CCc1cc(N2CCN(C)CC2)ccc1Nc1ncc(C(F)(F)F)c(NCCCN2CCCOC2=O)n1 [Example 39] | 1 to 25 | 1 to 25 | 25 to 100 | 10 to 100
3 | CN1CCN(c2ccc(Nc3ncc(C(F)(F)F)c(NCCCN4CCCOC4=O)n3)c(C3CC3)c2)CC1 [Example 41] |  | 1 to 25 | 25 to 100 | 10 to 100
4 | CCc1cc(N2CCNCC2)ccc1Nc1ncc(C(F)(F)F)c(NCCCN2CCCOC2=O)n1 [Example 46] |  | 1 to 25 | 25 to 100 | 100 to 300
5 | CN1CCN(c2ccc(Nc3ncc(C(F)(F)F)c(NCCCN4CCCOCC4=O)n3)c(C3CC3)c2)CC1 [Example 52] | 1 to 25 | 1 to 25 | 25 to 100 | 100 to 300
6 | CN1CCN(c2ccc(Nc3ncc(Cl)c(NCCCN4CCCOCC4=O)n3)c(C3CC3)c2)CC1 [Example 55] | 100 to 500 |  | 100 to 500 | 100 to 300
7 | CN1CCN(c2ccc(Nc3ncc(C(F)(F)F)c(NCCCN4CCOCCC4=O)n3)c(C3CC3)c2)CC1 [Example 70] | 1 to 25 | 1 to 25 | 25 to 100 | 10 to 100
8 | CCc1cc(N2CC3CCC(C2)N3C)ccc1Nc1ncc(C(F)(F)F)c(NCCCN2CCOCCC2=O)n1 [Example 74] |  | 1 to 25 | 1 to 25 | 
9 | CCc1cc(N2CCN(C)CC2)ccc1Nc1ncc(Br)c(NCCCN2CCOCCC2=O)n1 [Example 76] | 1 to 25 | 1 to 25 |  | 
10 | CCc1cc(N2CCNCC2)ccc1Nc1ncc(C(F)(F)F)c(NCCCN2CCOCCC2=O)n1 [Example 84] |  | 1 to 25 | 25 to 100 | 100 to 300
11 | CCc1cc(N2CCN(C)CC2)c(F)cc1Nc1ncc(C(F)(F)F)c(NCCCN2CCOCCC2=O)n1 [Example 86] |  | 25 to 100 |  | 10 to 100
12 | O=C1OCCCN1CCCNc1nc(Nc2ccc(N3CCNCC3)cc2C2CC2)ncc1C(F)(F)F [Example 99] |  | 1 to 25 | 25 to 100 | 100 to 300
